Common to all, as to experiment: NCI-60 SRB screen
What all share (assay type): cell-based

For one assay, the system named is NCI-H522. Conditions: Homo sapiens; NCI-H522, 10^–5 Molar; read-out: Percent growth inhibition. An outline of the steps: (§1)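 Compound added at 10^−5 M final, 48 h at 37 °C. Fixed with cold TCA, stained with 0.4% SRB, read at […].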
The test system of a further assay is MDA-MB-435. Conditions: Homo sapiens; MDA-MB-435, 10^–5 Molar; read-out: Percent growth inhibition. An outline of the steps: (§2)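 Percent growth inhibition at 10^−5 M, 48 h. Sulforhodamine B read-out at […] following cold TCA fixation; Tz plates fixed when compound was added.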
The test system of the next assay is HOP-92. As to conditions: Homo sapiens; HOP-92, 10^–5 Molar; read-out: Percent growth inhibition. The procedure, abridged:
as §1

In another assay the test system is HCT-15. Conditions: Homo sapiens; HCT-15, 10^–5 Molar; read-out: Percent growth inhibition. The procedure, abridged:
as §1

A further assay relates to SF-539. As to conditions: Homo sapiens; SF-539, 10^–5 Molar; read-out: Percent growth inhibition. An outline of the steps: as §1
The next assay concerns BT-549. Conditions: Homo sapiens; BT-549, 10^–5 Molar; read-out: Percent growth inhibition. The procedure, abridged:
as §1

In a further assay the test system is NCI-H460. As to conditions: Homo sapiens; NCI-H460, 10^–5 Molar; read-out: Percent growth inhibition. An outline of the steps:
as §1

A further assay deals with EKVX. As to conditions: Homo sapiens, 10^–5 Molar, read-out: Percent growth inhibition. The procedure, abridged: as §1
In a further assay the test system is SF-268. Conditions: Homo sapiens; SF-268, 10^–5 Molar; read-out: Percent growth inhibition. An outline of the steps:
as §2

For the next assay, the system named is A498. Conditions: Homo sapiens; A498, 10^–5 Molar; read-out: Percent growth inhibition. The procedure, abridged: as §2
A further assay relates to NCI-H226. Conditions: Homo sapiens; NCI-H226, 10^–5 Molar; read-out: Percent growth inhibition. An outline of the steps:
as §2

In another assay the test system is MDA-MB-468. As to conditions: Homo sapiens; MDA-MB-468, 10^–5 Molar; read-out: Percent growth inhibition. The procedure, abridged:
as §1

The test system of a further assay is SF-295. Conditions: Homo sapiens; SF-295, 10^–5 Molar; read-out: Percent growth inhibition. The procedure, abridged:
as §2

The next assay deals with SN12C. Conditions: Homo sapiens, 10^–5 Molar, read-out: Percent growth inhibition. The procedure, abridged:
as §2

For a further assay, the system named is NCI-H322M. As to conditions: Homo sapiens, 10^–5 Molar, read-out: Percent growth inhibition. An outline of the steps: as §1
Another assay deals with SW-620. As to conditions: Homo sapiens; SW-620, 10^–5 Molar; read-out: Percent growth inhibition. The procedure, abridged:
as §1

The next assay relates to SNB-75. As to conditions: Homo sapiens; SNB-75, 10^–5 Molar; read-out: Percent growth inhibition. The procedure, abridged: as §1
Another assay has as its system KM12. As to conditions: Homo sapiens; KM12, 10^–5 Molar; read-out: Percent growth inhibition. An outline of the steps: as §2
A further assay has as its system IGROV1. As to conditions: Homo sapiens, IGROV-1; IGROV1, 10^–5 Molar; read-out: Percent growth inhibition. The procedure, abridged: as §1
The subject of another assay is T-47D. As to conditions: Homo sapiens, T47D, 10^–5 Molar, read-out: Percent growth inhibition. An outline of the steps:
as §2

The subject of the next assay is 786-0. Conditions: Homo sapiens; 786-0, 10^–5 Molar; read-out: Percent growth inhibition. An outline of the steps:
as §2

In another assay the test system is HOP-62. Conditions: Homo sapiens; HOP-62, 10^–5 Molar; read-out: Percent growth inhibition. An outline of the steps: as §1
A further assay deals with leukemia SR. Conditions: Homo sapiens; for inhibition at 10 µM: SR, 10^–5 Molar, read-out: Percent growth inhibition. The procedure, abridged:
as §1

By inhibition is commonly meant the change of the read-out against control, counted positive when it falls. What is called IC50 is the point on the concentration scale where inhibition reaches its midpoint. High values mean a need for much substance, low ones inhibition by little substance.

As for `CCn1cc(C(=O)O)c(=O)c2cc(F)c(N3CCN(CC(=O)Nc4ccc(Cl)cc4)C(C)C3)c(F)c21` (stereo not shown) [Compound 5b, 7-(4-(2-((4-Chlorophenyl)amino)-2-oxoethyl)-3-methylpiperazin-1-yl)-1-ethyl-6,8-difluoro-4-oxo-1,4-dihydroquinoline-3-carboxylic acid], the inhibition at 10 µM came to 8.89% in the assay on NCI-H522; 5.85% in the assay with MDA-MB-435; 9.45% in the assay with HOP-92; 1.39% with HCT-15; 4.4% in the assay on SF-539; 0.23% with BT-549. Also, the inhibition at 10 µM in the assay on NCI-H460 came to 9.4%; in the assay with EKVX, 3.04%; in the assay with SF-268 it was 6.49%; with A498, 27.1%; in the assay on NCI-H226 it was 3.83%; with MDA-MB-468 it was 7.4%. Besides, the inhibition at 10 µM in the assay on SF-295 is 13%; in the assay with SN12C it was 2.23%; with NCI-H322M, 13.8%; in the assay on SW-620, 1.08%; in the assay with SNB-75, 17.7%; in the assay on KM12, 3.94%. The inhibition at 10 µM with IGROV1 is 0.82%; in the assay with T-47D it was 11.2%.
As to `CCn1cc(C(=O)NN=Cc2ccccc2)c(=O)c2cc(F)c(N3CCNC(C)C3)c(F)c21` (stereo not shown) [Compound 3a, N'-Benzylidene-1-ethyl-6,8-difluoro-7-(3-methylpiperazin-1-yl)-4-oxo-1,4-dihydroquinoline-3-carbohydrazide], the inhibition at 10 µM is 175% with NCI-H522; 167% with 786-0; 188% in the assay with MDA-MB-435; 44.2% with HOP-92; 186% in the assay on HCT-15; 187% in the assay with SF-539. The inhibition at 10 µM in the assay with BT-549 is 22.2%; in the assay on NCI-H460, 173%; in the assay with HOP-62, 31.4%; in the assay on EKVX, 65.7%; with SF-268, 61.1%; in the assay on A498 it was 0.4%. The inhibition at 10 µM with NCI-H226 was determined as 12.6%; with MDA-MB-468 it was 69.6%; with SF-295, 91.1%; with SN12C, 38.3%; in the assay on leukemia SR it was 115%; in the assay with NCI-H322M it was 47.5%. Moreover, the inhibition at 10 µM in the assay on SW-620 turned out to be 181%; with SNB-75 it was 7.18%; in the assay with KM12, 189%; in the assay with IGROV1, 42%; with T-47D, 36.4%.
For the compound `CCn1cc(C(=O)NN=Cc2ccc(Br)cc2)c(=O)c2cc(F)c(N3CCNC(C)C3)c(F)c21` (stereo not shown) [Compound 3c, N'-(4-Bromobenzylidene)-1-ethyl-6,8-difluoro-7-(3-methylpiperazin-1-yl)-4-oxo-1,4-dihydroquinoline-3-carbohydrazide], the inhibition at 10 µM with NCI-H522 worked out at 21.5%; with 786-0, 36.1%; in the assay with MDA-MB-435, 83.3%; with HOP-92, 38.8%; with HCT-15, 119%; with SF-539, 28.6%. The inhibition at 10 µM amounted to 8.32% in the assay on BT-549; 151% in the assay with NCI-H460; 11.2% in the assay on HOP-62; 13.1% in the assay with EKVX; 37.4% in the assay with SF-268; 1.99% in the assay on A498. Also, the inhibition at 10 µM with NCI-H226 was 2.69%; with MDA-MB-468, 17.5%; with SF-295 it was 25.5%; in the assay with SN12C, 47.8%; with leukemia SR it was 95.7%; in the assay on NCI-H322M, 14.2%. The inhibition at 10 µM in the assay on SW-620 came to 174%; in the assay with SNB-75, 14.4%; in the assay on KM12, 52.1%; in the assay on IGROV1, 28.7%; with T-47D it was 36%.
On to `CCn1cc(C(=O)NN=Cc2cccs2)c(=O)c2cc(F)c(N3CCNC(C)C3)c(F)c21` (stereo not shown) [Compound 3e, 1-Ethyl-6,8-difluoro-7-(3-methylpiperazin-1-yl)-4-oxo-N'-(thiophen-2-ylmethylene)-1,4-dihydroquinoline-3-carbohydrazide], for which the inhibition at 10 µM with NCI-H522 came to 28.9%; in the assay with 786-0, 32.2%; in the assay with MDA-MB-435, 7.77%; with HOP-92, 46.2%; with HCT-15, 75%; in the assay on SF-539, 15.8%. In addition, the inhibition at 10 µM came out at 38.4% with BT-549; 76.4% in the assay on NCI-H460; 27.6% with HOP-62; 65.9% with EKVX; 20.9% in the assay with SF-268; 24% in the assay on NCI-H226. Also, the inhibition at 10 µM was found to be 44.9% in the assay on MDA-MB-468; 14.7% in the assay with SF-295; 30% with SN12C; 104% in the assay on leukemia SR; 15.9% in the assay with NCI-H322M; 117% with SW-620. Besides, the inhibition at 10 µM with SNB-75 was 11.5%; with KM12, 16.5%; with IGROV1, 33%; in the assay on T-47D it was 22.2%. Also, in the assay with leukemia SR (Leukemia SR cells, concentration used for cell cycle and apoptosis tests), half-maximal inhibition (IC50) was put at 1900 nM.
Take `CCn1cc(C(=O)NN=Cc2cccnc2)c(=O)c2cc(F)c(N3CCNC(C)C3)c(F)c21` (stereo not shown) [Compound 3d, 1-Ethyl-6,8-difluoro-7-(3-methylpiperazin-1-yl)-4-oxo-N'-(pyridin-3-ylmethylene)-1,4-dihydroquinoline-3-carbohydrazide]: the inhibition at 10 µM in the assay with NCI-H522 amounted to 61.5%; with 786-0, 54.1%; with MDA-MB-435, 49%; in the assay on HOP-92, 74.2%; in the assay on HCT-15 it was 1.76%; in the assay on SF-539, 68.2%. Also, the inhibition at 10 µM in the assay on BT-549 is 23.1%; in the assay on NCI-H460 it was 63%; in the assay with HOP-62, 40.6%; with EKVX, 37.2%; in the assay on SF-268, 63%; in the assay with A498 it was 40.3%. In addition, the inhibition at 10 µM came out at 58.2% with NCI-H226; 69.3% in the assay on MDA-MB-468; 15.1% in the assay with SF-295; 69.4% with SN12C; 66.4% in the assay on leukemia SR; 41.9% with NCI-H322M. The inhibition at 10 µM stood at 73.9% in the assay with SW-620; 41.1% in the assay with SNB-75; 20.7% with KM12; 71.7% in the assay on IGROV1; 52.6% in the assay on T-47D.

The values are drawn from paper PMC10940605, “Design, synthesis and in vitro anticancer activity of some new lomefloxacin derivatives” (Scientific Reports, 2024).
